Experimental findings from patent US11236084B2, “Substituted azaindoline derivatives as NIK inhibitors” (Janssen Pharmaceutica NV, priority 2017, dated 2022) are described below.

A value given as a limit tells only on which side of the number the result lay.

The target in test [1] is T1, recombinant human NF-kappaB-inducing kinase (NIK/MAP3K14) (Homo sapiens, UniProt Q99558). In words: Biological Assay A: inhibition of recombinant human NF-kappaB-inducing kinase (NIK/MAP3K14) activity (MBP phosphorylation, Mesoscale). To be noted: MSD MBP; averaged over all measurements on all batches; read-out: Assay A Biochemical (MSD MBP) IC50. As to the method: Pharmacological Part Biological Assay A Inhibition of Recombinant Human NF-kappaB-Inducing Kinase (NIK/MAP3K14) Activity
Assay buffer was 50 mM Tris pH 7.5 containing 1 mM EGTA (ethylene glycol tetraacetic acid), 1 mM DTT (dithiothreitol), 0.1 mM Na3VO4, 5 mM MgCl2, 0.01% Tween® 20. Assays were carried out in 384 well Mesoscale high binding plates which had been coated with myelin basic protein (MBP) and blocked with bovine serum albumin to prevent non-specific protein binding. All compounds tested were dissolved in dimethyl sulfoxide (DMSO) and further dilutions were made in assay buffer. Final DMSO concentration was 1% (v/v) in assays. Incubations consisted of compound (1% DMSO in control and blank wells), 25 μM […] (ATP), and 10 nM NIK/MAP3K14 substituting enzyme with buffer in the blank wells. Incubations were carried out for 1 h at 25° C. and were followed by washing and sequential incubation with rabbit anti-phospho-MBP and anti-rabbit Ig Sulfotag antibody before reading bound Sulfotag on a Mesoscale Discovery. Signal obtained in the wells containing blank samples was subtracted from all other wells and […] were determined by fitting a sigmoidal curve to % inhibition of control versus Log10 compound concentration.
(§1) Data for the compounds of the invention in the above assays are provided in Table A (the values in Table are averaged values over all measurements on all batches of a compound; values as IC50 (nM)). (‘n.c.’ means not calculated: ‘Co.’ means compound)

For test [2], the system named is P-IKKα levels in L363 (NIK translocated multiple myeloma) cells. In words: Biological Assay C: effect of compounds on P-IKKα levels in L363 (NIK translocated multiple myeloma) cells, performed at 2 locations. The class given is cell-based, human. To be noted: Homo sapiens, L-363, location 2; L363 cells, P-IKKα levels; averaged values; read-out: Assay C location 2 IC50. As for the experimental part:
Effect of Compounds on P-IKKα Levels in L363 (NIK Translocated Multiple Myeloma) Cells
All compounds tested were dissolved in DMSO and further dilutions were made in culture medium. Final DMSO concentration was 1% (v/v) in cell assays. The human L363 cells (ATCC) were cultured in RPMI 1640 medium supplemented with GlutaMax and 10% fetal calf serum (PAA). Cells were routinely maintained at densities of 0.2×10^6 cells per ml-1×10^6 cells per ml at 37° C. in a humidified 5% CO2 atmosphere. Cells were passaged twice a week splitting back to obtain the low density. Cells were seeded in 96 well plates (Nunc 167008) at 2×10^6 per ml media in a volume of 75 μl per well plus 25 μl […] recombinant human B-cell activating factor (BAFF/BLyS/TNFSF13B). Seeded cells were incubated at 37° C. in a humidified 5% CO2 atmosphere for 24 hr. Drugs and/or solvents were added (20 μl) to a final volume of 120 μl. Following 2 hr treatment plates were removed from the incubator and cell lysis was achieved by the addition of 30 μl 5× lysis buffer followed by shaking on a plate shaker at 4° C. for 10 min. At the end of this incubation lysed cells were centrifuged at 800×g for 20 min at 4° C. and the lysate was assessed for P-IKKα levels by sandwich immuno-assay carried out in anti-rabbit antibody coated Mesoscale plates. Within an experiment, the results for each treatment were the mean of 2 replicate wells. For initial screening purposes, compounds were tested using an 8 point dilution curve (serial 1:3 dilutions). For each experiment, controls (containing MG132 and BAFF but no test drug) and a blank incubation (containing MG132 and BAFF and 1 μM ADS125117, a test concentration known to give full inhibition) were run in parallel. The blank incubation value was subtracted from all control and sample values. To determine the IC50 a sigmoidal curve was fitted to the plot of % inhibition of control P-IKKα levels versus Log10 compound concentration.
Assay C was performed at 2 different locations.
as §1

In test [3] the target is T1, recombinant human NF-kappaB-inducing kinase (NIK/MAP3K14). In words: Biological Assay B: inhibition of auto-phosphorylation of recombinant human NIK/MAP3K14 (AlphaScreen), performed at 2 locations. The class given is biochemical. To be noted: location 1; AlphaScreen auto-phosphorylation; averaged values; read-out: Assay B location 1 IC50. The method, boiled down: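 GST-tagged NIK (0.2 nM) auto-phosphorylation with 25 microM ATP in 50 mM Tris pH 7.5, 5 mM MgCl2, 1% DMSO, 1 h at 25° C. Anti-phospho-IKK Ser176/180 AlphaScreen readout; blank-subtracted IC50 from sigmoidal fit. Run at two sites.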
A general note: In Alpha technology, singlet oxygen from a donor bead excites a nearby acceptor bead.

T1 sequence (Q99558 whole entry): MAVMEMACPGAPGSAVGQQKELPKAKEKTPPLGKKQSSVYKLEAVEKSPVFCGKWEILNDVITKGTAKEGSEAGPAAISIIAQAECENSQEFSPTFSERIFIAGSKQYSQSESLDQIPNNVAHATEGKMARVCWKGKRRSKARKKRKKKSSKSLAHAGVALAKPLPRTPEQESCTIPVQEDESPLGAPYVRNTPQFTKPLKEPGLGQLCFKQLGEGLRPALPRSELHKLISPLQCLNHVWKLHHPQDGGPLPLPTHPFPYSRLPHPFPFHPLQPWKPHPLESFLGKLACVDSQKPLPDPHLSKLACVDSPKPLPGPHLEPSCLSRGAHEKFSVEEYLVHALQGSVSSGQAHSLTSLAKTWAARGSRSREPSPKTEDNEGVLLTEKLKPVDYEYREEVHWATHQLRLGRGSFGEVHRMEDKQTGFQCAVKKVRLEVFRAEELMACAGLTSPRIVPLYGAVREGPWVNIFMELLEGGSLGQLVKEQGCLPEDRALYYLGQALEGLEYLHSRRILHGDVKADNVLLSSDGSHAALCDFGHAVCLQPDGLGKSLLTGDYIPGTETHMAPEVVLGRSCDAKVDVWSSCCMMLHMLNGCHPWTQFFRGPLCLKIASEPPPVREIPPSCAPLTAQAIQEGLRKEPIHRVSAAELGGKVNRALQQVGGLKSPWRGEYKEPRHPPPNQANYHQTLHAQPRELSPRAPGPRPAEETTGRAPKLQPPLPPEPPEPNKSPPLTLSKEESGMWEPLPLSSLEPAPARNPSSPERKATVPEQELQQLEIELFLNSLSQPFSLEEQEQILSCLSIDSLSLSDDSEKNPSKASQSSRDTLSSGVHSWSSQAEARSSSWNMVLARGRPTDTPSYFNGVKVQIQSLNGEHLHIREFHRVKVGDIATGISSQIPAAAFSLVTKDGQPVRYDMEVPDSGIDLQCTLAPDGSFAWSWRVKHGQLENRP

As for `COc1cc(Nc2nccc(-c3cnc4c(c3)C(C)(C)CN4)n2)c(C)c(C(=O)NC2CN(C)C2)c1` [Compound 51], the IC50 in test [1] amounted to 6.9 nM; in test [2], 112 nM.

Turning to `Cc1cc(C(=O)N2CCC(CCO)CC2)ccc1Nc1nccc(-c2cnc3c(c2)C(C)(C)CN3)n1` [Compound 53], the IC50 in test [1] was determined as 4.1 nM; in test [2], 174 nM.

With `CC(=O)NCc1ccc(Nc2nccc(-c3cnc4c(c3)C(C)(C)CN4)n2)c(Br)c1` [Compound 63], the 50% inhibitory concentration (IC50) in test [1] is 8.3 nM; in test [2] it was 75.9 nM.

For the molecule `CCC(=O)NCc1cccc(Nc2nccc(-c3cnc4c(c3)C(C)(C)CN4)n2)c1C` [Compound 64], the IC50 in test [1] is 13.5 nM; in test [2] it was 407 nM.

Take `Cc1c(CNC(=O)C(C)C)cccc1Nc1nccc(-c2cnc3c(c2)C(C)(C)CN3)n1` [Compound 65]: the IC50 stood at 24 nM in test [1] and 617 nM in test [2].

Consider `COCC(=O)NCc1cccc(Nc2nccc(-c3cnc4c(c3)C(C)(C)CN4)n2)c1C` [Compound 66], for which the values for the IC50 in test [1] and in test [2] were 10.7 nM and 363 nM, respectively.

As for `CC(=O)NCc1ccc(Nc2nccc(-c3cnc4c(c3)C(C)(C)CN4)n2)c(C(F)(F)F)c1` [Compound 67], the figures for the IC50 in test [1] and in test [2] were 45.7 nM and 1660 nM, respectively.

Turning to `CC(=O)NCc1ccc(Nc2nccc(-c3cnc4c(c3)C(C)(C)CN4)n2)c(Cl)c1` [Compound 72], the IC50 in test [1] was 6.5 nM; in test [2], 53.7 nM.

With `CCC(=O)NCc1ccc(Nc2nccc(-c3cnc4c(c3)C(C)(C)CN4)n2)c(C)c1` [Compound 74], the IC50 in test [1] was 6.8 nM; in test [2], 67.6 nM.

Consider `Cc1cc(CNC(=O)C(C)C)ccc1Nc1nccc(-c2cnc3c(c2)C(C)(C)CN3)n1` [Compound 75], for which the IC50 is 12.3 nM in test [1] and 135 nM in test [2].

`COCC(=O)NCc1ccc(Nc2nccc(-c3cnc4c(c3)C(C)(C)CN4)n2)c(C)c1` [Compound 76]: the IC50 came to 13.5 nM in test [1] and 182 nM in test [2].

Take `CC(=O)NCc1ccc(Nc2nccc(-c3cnc4c(c3)C(C)(C)CN4)n2)c(OC(F)(F)F)c1` [Compound 77]: the IC50 amounted to 56.2 nM in test [1] and 126 nM in test [2].

As for `Cc1cc(C(=O)N2CCOCC2)ccc1Nc1nccc(-c2cnc3c(c2)C(C)(C)CN3)n1` [Compound 78], the results for the IC50 in test [1] and in test [2] were 16.6 nM and greater than 10000 nM, respectively.

Consider `Cc1cc(C(=O)N2CC(C)(O)C2)ccc1Nc1nccc(-c2cnc3c(c2)C(C)(C)CN3)n1` [Compound 80], for which the figures for the half-maximal inhibitory concentration (IC50) in test [1] and in test [2] were 39.8 nM and 646 nM, respectively.

Regarding `CC(=O)NCc1ccc(Nc2nccc(-c3cnc4c(c3)C(C)(C)CN4)n2)c(F)c1` [Compound 83], the IC50 worked out at 35.5 nM in test [1] and 2690 nM in test [2].

As for `CN1CCC(NC(=O)c2ccc(Nc3nccc(-c4cnc5c(c4)C(C)(C)CN5)n3)c(C(F)(F)F)c2)CC1` [Compound 91], the IC50 was 339 nM in test [1] and greater than 10000 nM in test [2].

Regarding `CC1(C)CNc2ncc(-c3ccnc(Nc4ccc(C(=O)NC5CCOCC5)cc4C(F)(F)F)n3)cc21` [Compound 94], the IC50 is 347 nM in test [1] and roughly 10000 nM in test [2].

Take `CC(=O)NC(C)c1cccc(Nc2nccc(-c3cnc4c(c3)C(C)(C)CN4)n2)c1` (stereo not shown) [Compound 96]: the figures for the IC50 in test [1] and in test [2] were 13.5 nM and roughly 6310 nM, respectively.

With `Cc1cc(C(=O)O)ccc1Nc1nccc(-c2cnc3c(c2)C(C)(C)CN3)n1` [Compound 97], the IC50 was roughly 501 nM in test [1] and greater than 10000 nM in test [3].

`Cc1cc(C(=O)N2CCC(C(C)(C)O)CC2)ccc1Nc1nccc(-c2cnc3c(c2)C(C)(C)CN3)n1` [Compound 98]: the IC50 in test [1] is 13.5 nM; in test [2], 93.3 nM.

Regarding `Cc1cc(C(=O)N2CCC(C#N)CC2)ccc1Nc1nccc(-c2cnc3c(c2)C(C)(C)CN3)n1` [Compound 99], the results for the IC50 in test [1] and in test [2] were 7.4 nM and 144 nM, respectively.

For `Cc1cc(C(=O)N2CCS(=O)(=O)CC2)ccc1Nc1nccc(-c2cnc3c(c2)C(C)(C)CN3)n1` [Compound 100], the IC50 came to 6.6 nM in test [1] and 174 nM in test [2].

`CN1CCC(NC(=O)c2ccc(Nc3nccc(-c4cnc5c(c4)C(C)(C)CN5)n3)c(Cl)c2)CC1` [Compound 103]: the figures for the IC50 in test [1] and in test [2] were 155 nM and 3090 nM, respectively.

Consider `CC1(C)CNc2ncc(-c3ccnc(Nc4ccc(C(=O)NC5CCOCC5)cc4Cl)n3)cc21` [Compound 104], for which the IC50 in test [1] stood at 61.7 nM; in test [2], 398 nM.

On to `COc1cc(Nc2nccc(-c3cnc4c(c3)C(C)(C)CN4)n2)c(C)c(C(=O)NC2CCOCC2)c1` [Compound 105], for which the IC50 is 30.2 nM in test [1] and 436 nM in test [2].

Take `COCCNC(=O)c1cc(OC)cc(Nc2nccc(-c3cnc4c(c3)C(C)(C)CN4)n2)c1C` [Compound 106]: the figures for the IC50 in test [1] and in test [2] were 15.9 nM and 95.5 nM, respectively.

Regarding `COc1cc(Nc2nccc(-c3cnc4c(c3)C(C)(C)CN4)n2)c(C)c(C(=O)N2CCC(O)CC2)c1` [Compound 107], the IC50 was determined as 13.5 nM in test [1] and 72.4 nM in test [2].

Take `COc1cc(Nc2nccc(-c3cnc4c(c3)C(C)(C)CN4)n2)c(C)c(C(=O)N2CCOCC2)c1` [Compound 108]: the results for the IC50 in test [1] and in test [2] were 15.1 nM and 102 nM, respectively.

Take `CC1(C)CNc2ncc(-c3ccnc(Nc4ccc(C(=O)NC5CCOCC5)cc4C(F)F)n3)cc21` [Compound 110]: the IC50 is 129 nM in test [1] and 2340 nM in test [2].

`COc1c(Nc2nccc(-c3cnc4c(c3)C(C)(C)CN4)n2)cccc1C(=O)N1CCOCC1` [Compound 112]: the IC50 in test [1] turned out to be 417 nM.

`COc1c(Nc2nccc(-c3cnc4c(c3)C(C)(C)CN4)n2)cccc1C(=O)NC1CCOCC1` [Compound 113]: in test [1], the IC50 turned out to be 288 nM.

For the molecule `COc1c(Nc2nccc(-c3cnc4c(c3)C(C)(C)CN4)n2)cccc1C(=O)N1CCC(O)CC1` [Compound 114], the IC50 in test [1] was 251 nM; in test [2] it was greater than 10000 nM.

As for `Cc1cc(C#N)ccc1Nc1nccc(-c2cnc3c(c2)C(C)(C)CN3)n1` [Compound 115], the IC50 in test [1] came out at 457 nM.

`COc1cc(C#N)ccc1Nc1nccc(-c2cnc3c(c2)C(C)(C)CN3)n1` [Compound 116]: the IC50 in test [1] turned out to be 309 nM; in test [2], 3160 nM.

In the case of `Cc1cc(N2CCOCC2)ccc1Nc1nccc(-c2cnc3c(c2)C(C)(C)CN3)n1` [Compound 117], the results for the IC50 in test [1] and in test [2] were 162 nM and greater than 10000 nM, respectively.

For the molecule `COc1ccc(S(C)(=O)=O)cc1Nc1nccc(-c2cnc3c(c2)C(C)(C)CN3)n1` [Compound 119], the IC50 was 295 nM in test [1] and 5500 nM in test [2].

For `Cc1cc(C(=O)NC2CCOCC2)ccc1Nc1nccc(-c2cnc3c(c2)C(C)(CCO)CN3)n1` (stereo not shown) [Compound 124], the figures for the IC50 in test [1] and in test [2] were 7.8 nM and 2750 nM, respectively.

As for `CC1(C)CNc2ncc(-c3ccnc(Nc4ccc(C(=O)N5CCC(C#N)CC5)cc4OC(F)F)n3)cc21` [Compound 128], the IC50 in test [1] worked out at 7.9 nM; in test [2], 191 nM.

In the case of `COC1CCN(C(=O)c2ccc(Nc3nccc(-c4cnc5c(c4)C(C)(C)CN5)n3)c(OC(F)F)c2)CC1` [Compound 129], the IC50 amounted to 15.9 nM in test [1] and 229 nM in test [2].

In the case of `COc1ccc(C)c(Nc2nccc(-c3cnc4c(c3)C(C)(C)CN4)n2)c1CNC(C)=O` [Compound 135], the IC50 in test [1] was greater than 10000 nM.

As usually defined, the IC50 is the midpoint of a concentration-inhibition curve.
